In patent US12486242B2, “Long-acting low-addiction HNK derivative and preparation method therefor” (SHENZHEN RUIJIAN BIOTECHNOLOGY CO., LTD, priority 2020, dated 2025):
Entries after “also recorded” stand apart in the source; their conditions may differ. Where a name gives a salt, the structure may show the parent alone.

Columns and labels:
[1] = tested on: mice; experiment: Forced swimming test (FST), immobility time; assay type: in vivo; conditions: for antidepressant effect (immobility time): intragastric administration, mice; for antidepressant effect: dose not given; for course of efficacy within 7 days / effect on the 7th day: intragastric; for course of efficacy within 7 days: 1 hour to 7 days
Experimental: One hour before the forced swimming test (FST), the mice were transferred to the laboratory. The test was conducted under normal light condition and monitored by a digital camera. During the test, the mice were individually placed in transparent glass cylinders (28.5 cm in height, 14 cm in diameter) filled with 20 cm height of water (23±1° C.). On the first day, the mice were trained for 6 minutes and then removed from the cylinder. On the second day, the mice were administered saline, HNK, Compound 16, Compound C, and Compound D, and after different time periods, their immobility time was tested. During the last 4 minutes of the entire 6-minute swimming test, the static time was recorded through EthoVision XT (Noldus, Netherlands) of Noldus system. The static time was defined as passive floating, that is there was no other movement except the movements necessary to keep the animal's head above the water. After every two to three tests, the water in the cylinders was replaced. After the swimming test, the mice were removed from the water and dried under an infrared lamp.
The mice were given 1 mg (A), 10 mg (B) and 30 mg (C) of HNK and Compund I6 by intragastric administration, respectively, and their immobility time was measured after 1 hour and 7 days. The percentage of immobility time is expressed as mean±SEM. *p<0.05, **p<0.01, compared to base test. Mice of each group was N=8. Saline: saline group; I6: Compound I6 treatment group; HNK: 2R,6R-hydroxynorketamine treatment group.

[2] = tested on: mice; experiment: Behavioral sensitization experiment (spontaneous activity measurement); assay type: in vivo, C57BL/6J mice; conditions: doses 5 mg, 10 mg, 30 mg, intragastric, d1, d7, d15
Experimental: (§1) Animals: Male C57BL/6J mice of 8-12 weeks old were randomly divided into groups, 10 mice in each group, with body weight of 18-22 g, fed at room temperature (22±1° C.), under humidity of (50±10)%, illumination time from 8:00 to20:00. The mice had free access to food and water, and adapted to the experimental environment for at least 2-3 days before the experiments. All experiments were conducted from 8:00 to 16:00.
1.1 Small animal spontaneous activity measurement: An animal spontaneous activity infrared analysis system consists of a spontaneous activity box, an infrared probe device and a data acquisition system. The size of the spontaneous activity box is 40 cm×40 cm×65 cm, with sound isolation and light isolation, and mounted with a ventilation device. The activity statuses of the animals were recorded by the infrared probe, and the numbers of spontaneous activities of the animals were calculated. In order to test the effect of drugs on spontaneous activities of mice, the mice were randomly divided into 4 groups with 10 mice in each group. The Groups included: vehicle, I6, C, D (5.0, 10.0, 30.0 mg/kg), mor (10 mg/kg). The mice were administrated intragastrically once a day in the morning for 7 consecutive days; after that, the drugs withdrew for 7 days (without any treatment). On the 15th day, mice in each group were given Veh and the drugs (5.0, 10.0, 30.0 mg/kg) by intragastric administration to stimulate. Spontaneous activity of the mice within 1 hour was measured immediately after administration at d1, d7 and d15.
Statistical analysis: Experimental data were expressed as X±SEM. Graphpad software was used for statistical analysis, and t-test was used for comparison between two groups. One-way ANOVA analysis was used for comparison among multiple groups, and then LSD method was used for pairwise comparison.

[3] = tested on: mice; experiment: Position preference (CPP) experiment, three-room system; assay type: in vivo, C57BL/6J mice; conditions: doses 5 mg, 10 mg, 30 mg, intragastric, 6 days training, residence time in white box within 15 min
Experimental: as §1
1.2 CPP experiment: A three-room CPP system includes black and white boxes (25 cm×25 cm×30 cm) at left and right sides, separated by a middle box (10 cm×25 cm×30 cm). During the experiment, mice were put into the middle box and could freely move to the black and white boxes. A door with the size of 5 cm×5 cm was arranged between the middle box and each of the black and white boxes. The experiment adopted a biased procedure, which had three stages of pre-test, training, and test stages. During the whole experiment, the environmental conditions such as light, color and smell in the boxes were guaranteed to be consistent.
Pre-test stage: On days 1-3, the spacer plates between the boxes were removed, and all mice were put into the middle box after being injected with saline subcutaneously, allowing them to move freely in the boxes for 15 min, once a day for 3 consecutive days. The residence time of the mice in the black and white boxes was respectively recorded to determine the natural preference of the mice. The mice were trained with the non-natural preference box as the companion medicine box. […]
Test stage: on day 10, the spacer plates were removed, and the mice were put into the middle box allowing to move freely. At the same time, the residence time of the mice in the white box within 15 min were recorded.
Position preference was tested by a three-room system. […] After continuous training for 6 days, the test was carried out, and the residence times of the mice within 15 min in the white box were recorded. […]

[4] = Applicant's experimental studies on HNK (efficacy duration, addiction); conditions: in vivo
[5] = tested on: NMDA receptor; conditions: cited from earlier work
[6] = tested on: patients; conditions: within 72 hours after a single intravenous injection, 0.5 mg/kg; cited from earlier work

SMILES | antidepressant effect (immobility time) ([1]; 30 mg) | antidepressant effect [1] | behavioral sensitization effect on mice [2] | position preference effect on mice [3] | antidepressant effect (immobility time) ([1]; 1 mg) | antidepressant effect (immobility time) ([1]; 10 mg) | course of efficacy within 7 days ([1]; 10 mg) | course of efficacy within 7 days ([1]; 30 mg) | also measured
CN[C@@]1(c2ccccc2Cl)CCC[C@@H](OC(=O)c2ccccc2)C1=O [Compound C] | no antidepressant effect | no antidepressant effect | behavioral sensitizing effect; also recorded: behavioral sensitization effect | induced position preference |  |  |  |  | 
N[C@]1(c2ccccc2Cl)CCC[C@H](OC(=O)c2ccc(CN3CCOCC3)cc2)C1=O [Compound D] | no antidepressant effect | no antidepressant effect | behavioral sensitizing effect; also recorded: behavioral sensitization effect | induced position preference |  |  |  |  | 
N[C@@]1(c2ccccc2Cl)CCC[C@@H](OC(=O)c2ccoc2)C1=O [Compound I6, (2R,6R)-6-(3-furan)formyloxynorketamine hydrochloride salt] | antidepressant effect |  |  |  | no antidepressant effect | antidepressant effect | substantially did not decrease | substantially did not decrease | difference between the 10 mg and 30 mg treatment groups ([1]; 10 mg vs 30 mg): no significant difference; immobility time during forced swimming ([1]; compared with the HNK-treated group): less immobility time; antidepressant effect at the 7th day after administration ([1]; compared with the HNK-treated group, dose not stated): significant antidepressant effect; behavioral sensitization effect on mice ([2]; hydrochloride salt): no behavioral sensitization effect; also recorded: non-sensitization effect; position preference effect on mice ([3]; hydrochloride salt): no position preference effect; also recorded: non-position preference effect
N[C@@]1(c2ccccc2Cl)CCC[C@@H](O)C1=O [HNK, (2R,6R)-6-hydroxydemethylketamine, reference compound] | antidepressant effect |  |  |  | no antidepressant effect | antidepressant effect | decreased rapidly | decayed rapidly | effect on the 7th day ([1]; 10 mg): substantially had no effect; effect on the 7th day ([1]; 30 mg): substantially had no effect; addiction [4]: a certain degree of addiction; duration of efficacy after administration [4]: basically lost activity within one week; activity to NMDA receptor [5]: no activity
CNC1(c2ccccc2Cl)CCCCC1=O (centres unmarked) [ketamine] |  |  |  |  |  |  |  |  | patients with Hamilton Depression Scale score decreased by 50% or more [6]: more than 50%
